Earlier results on 3 molecules are cited in US20220235034A1, “SELECTIVE HISTAMINE H3 RECEPTOR ANTAGONISTS FOR TREATING AUTISM SPECTRUM DISORDER” (RICHTER GEDEON NYRT., priority 2019, published 2022).

One data set has as its system prenatal VPA model. To be noted: in vivo; cited from earlier work.
For the next data set, the system named is ASD subjects. The following applies: humans; cited from earlier work.
The target in data set [1] is T1, histamine H3 receptor (Homo sapiens, UniProt Q9Y5N1). To be noted: according to WO 2014/136075A1; cited from earlier work.
T1 sequence (Q9Y5N1 whole entry, species assumed): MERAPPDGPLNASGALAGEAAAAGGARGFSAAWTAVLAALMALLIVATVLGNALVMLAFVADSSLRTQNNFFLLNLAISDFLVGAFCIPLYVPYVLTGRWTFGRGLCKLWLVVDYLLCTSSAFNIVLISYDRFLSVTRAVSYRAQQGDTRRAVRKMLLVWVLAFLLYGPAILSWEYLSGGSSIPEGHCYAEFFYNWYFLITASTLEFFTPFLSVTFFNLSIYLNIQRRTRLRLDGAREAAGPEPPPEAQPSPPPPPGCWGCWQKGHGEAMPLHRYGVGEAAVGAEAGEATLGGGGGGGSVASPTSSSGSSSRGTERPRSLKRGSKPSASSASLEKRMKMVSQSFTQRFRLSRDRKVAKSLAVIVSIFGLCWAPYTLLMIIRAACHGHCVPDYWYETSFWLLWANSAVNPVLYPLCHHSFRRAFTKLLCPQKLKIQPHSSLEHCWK
The target of data set [2] is T1, histamine H3 receptor. The following applies: cited from earlier work.
In data set [3] the target is T2, histamine H3 receptor (Rattus norvegicus, UniProt Q9QYN8).
T2 construct: from tissue; host or cells: living rat (in vivo)
T2 sequence (Q9QYN8 whole entry): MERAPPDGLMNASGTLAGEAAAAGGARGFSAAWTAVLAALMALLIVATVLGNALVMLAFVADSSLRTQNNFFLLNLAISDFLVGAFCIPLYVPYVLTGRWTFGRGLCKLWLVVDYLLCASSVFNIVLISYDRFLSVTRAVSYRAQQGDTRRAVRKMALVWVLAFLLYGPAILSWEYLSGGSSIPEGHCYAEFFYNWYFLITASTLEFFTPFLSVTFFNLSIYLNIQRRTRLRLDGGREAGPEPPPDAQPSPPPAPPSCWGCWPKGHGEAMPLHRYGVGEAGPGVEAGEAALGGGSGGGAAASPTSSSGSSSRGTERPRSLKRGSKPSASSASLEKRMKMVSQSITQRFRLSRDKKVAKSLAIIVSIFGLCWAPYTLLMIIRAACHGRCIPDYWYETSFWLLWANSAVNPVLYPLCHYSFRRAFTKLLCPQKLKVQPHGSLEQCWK
To be noted: in vivo in rats; cited from earlier work.

Data set [4] deals with prenatally VPA-exposed mice. The following applies: cited from earlier work.
The target of data set [5] is T3, human monoamine oxidase A (Homo sapiens, UniProt P21397).
T3 sequence (P21397 1-527): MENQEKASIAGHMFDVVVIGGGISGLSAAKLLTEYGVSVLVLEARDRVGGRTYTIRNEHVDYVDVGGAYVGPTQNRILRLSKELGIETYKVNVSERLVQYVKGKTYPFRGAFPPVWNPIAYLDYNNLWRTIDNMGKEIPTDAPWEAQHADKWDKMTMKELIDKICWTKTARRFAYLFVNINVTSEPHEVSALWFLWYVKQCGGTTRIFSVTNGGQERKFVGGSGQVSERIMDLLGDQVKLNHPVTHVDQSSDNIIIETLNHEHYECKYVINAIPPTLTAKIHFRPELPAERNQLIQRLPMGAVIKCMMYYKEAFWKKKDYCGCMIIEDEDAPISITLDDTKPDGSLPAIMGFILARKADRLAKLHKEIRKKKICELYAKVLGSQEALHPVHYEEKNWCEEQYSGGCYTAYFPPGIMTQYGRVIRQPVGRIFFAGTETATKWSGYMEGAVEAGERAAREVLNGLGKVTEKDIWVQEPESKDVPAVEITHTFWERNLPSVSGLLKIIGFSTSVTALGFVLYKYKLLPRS
The following applies: cited from earlier work.

For data set [6], the target named is T4, human monoamine oxidase B (Homo sapiens, UniProt P27338).
T4 sequence (P27338 1-520): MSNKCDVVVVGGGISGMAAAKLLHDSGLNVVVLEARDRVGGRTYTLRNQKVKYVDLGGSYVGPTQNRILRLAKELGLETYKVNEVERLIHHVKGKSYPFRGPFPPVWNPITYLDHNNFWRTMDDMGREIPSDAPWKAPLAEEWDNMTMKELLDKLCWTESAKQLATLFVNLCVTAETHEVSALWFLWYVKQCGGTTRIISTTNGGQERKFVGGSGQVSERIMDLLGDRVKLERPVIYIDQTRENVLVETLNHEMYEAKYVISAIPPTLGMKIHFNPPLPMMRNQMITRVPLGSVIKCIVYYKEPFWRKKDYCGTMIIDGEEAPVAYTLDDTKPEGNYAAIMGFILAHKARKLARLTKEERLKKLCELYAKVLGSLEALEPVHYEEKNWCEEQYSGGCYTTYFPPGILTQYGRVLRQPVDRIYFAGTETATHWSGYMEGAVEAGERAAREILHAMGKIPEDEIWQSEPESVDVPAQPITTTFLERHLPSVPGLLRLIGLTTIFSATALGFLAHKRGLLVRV
The following applies: cited from earlier work.

The target of the next data set is T5, rat monoamine oxidase A (Rattus norvegicus, UniProt P21396).
T5 sequence (P21396 1-526): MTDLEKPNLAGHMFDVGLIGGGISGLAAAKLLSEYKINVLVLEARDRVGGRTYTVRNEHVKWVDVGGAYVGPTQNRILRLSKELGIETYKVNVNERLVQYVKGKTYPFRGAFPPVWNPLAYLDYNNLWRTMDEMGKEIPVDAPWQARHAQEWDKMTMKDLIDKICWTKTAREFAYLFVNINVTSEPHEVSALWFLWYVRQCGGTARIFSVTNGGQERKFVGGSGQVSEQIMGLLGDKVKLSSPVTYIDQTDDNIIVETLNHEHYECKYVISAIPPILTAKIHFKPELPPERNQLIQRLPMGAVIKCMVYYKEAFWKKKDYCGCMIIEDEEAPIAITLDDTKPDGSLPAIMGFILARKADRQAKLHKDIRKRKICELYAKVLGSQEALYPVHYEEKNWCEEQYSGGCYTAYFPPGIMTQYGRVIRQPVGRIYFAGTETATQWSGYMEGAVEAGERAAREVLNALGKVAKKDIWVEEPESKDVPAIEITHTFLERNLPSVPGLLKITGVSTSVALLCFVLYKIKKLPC
The following applies: cited from earlier work.

The target of a further data set is T6, rat monoamine oxidase B (Rattus norvegicus, UniProt P19643).
T6 sequence (P19643 1-520): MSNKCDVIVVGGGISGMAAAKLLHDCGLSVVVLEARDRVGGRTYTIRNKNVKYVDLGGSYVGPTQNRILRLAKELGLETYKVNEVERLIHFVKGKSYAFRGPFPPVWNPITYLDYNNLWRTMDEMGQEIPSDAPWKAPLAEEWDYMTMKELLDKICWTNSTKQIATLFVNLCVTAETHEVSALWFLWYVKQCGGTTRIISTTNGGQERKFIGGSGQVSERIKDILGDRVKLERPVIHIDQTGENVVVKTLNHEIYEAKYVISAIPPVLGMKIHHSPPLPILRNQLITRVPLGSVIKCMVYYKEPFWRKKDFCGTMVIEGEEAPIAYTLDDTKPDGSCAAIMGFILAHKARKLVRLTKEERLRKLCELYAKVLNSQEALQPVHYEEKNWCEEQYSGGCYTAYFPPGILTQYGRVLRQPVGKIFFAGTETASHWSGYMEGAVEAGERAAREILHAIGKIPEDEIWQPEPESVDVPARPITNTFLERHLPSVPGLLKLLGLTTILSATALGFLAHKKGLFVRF
To be noted: cited from earlier work.

For data set [7] the following is noted: 3 mg/kg intraperitoneally; cited from earlier work.
[8] abbreviates: 3 mg/kg intraperitoneally, prenatal valproate model in mice.

Take `CC[C@H](C)[C@@H]1NC(=O)[C@H](Cc2ccc(O)cc2)NC(=O)[C@@H](N)CSSC[C@@H](C(=O)N2CCC[C@H]2C(=O)N[C@@H](CC(C)C)C(=O)NCC(N)=O)NC(=O)[C@H](CC(N)=O)NC(=O)[C@H](CCC(N)=O)NC1=O` [oxytocin]: the “behavioral impairments in the prenatal VPA model” value in the data set with prenatal VPA model is on record as “improve behavioral impairments”. Moreover, the “efficacy signals in ASD subjects” value in the data set on ASD subjects is on record as “produced efficacy signals”.
For the molecule `CC(=O)N1CCC(Oc2ccc(OCCCN3CCC[C@H]3C)cc2)CC1` [Compound of Formula 1, 1-[4-(4-{3-[(2R)-2-methylpyrrolidin-1-yl]-propoxy}-phenoxy)-piperidin-1-yl]-ethan-1-on], on histamine H3 receptor [1], the “affinity for histamine H3 receptor” value is listed as “high affinity” and the “selectivity for histamine H3 receptor” value is on record as “highly selective”. Further, the “functional behaviour in vitro” value on histamine H3 receptor [2] was “receptor antagonist/inverse agonist”. Also, at histamine H3 receptor [3], the “histamine H3 receptor antagonism in vivo” value is on record as “shows histamine H3 receptor antagonism in vivo”.
Turning to `O=C(c1ccc(OCCCc2cnc[nH]2)cc1)C1CC1` [ciproxifan], the excessive repetitive behavior result in [4] (setting [8]) is recorded as “improved”. Besides, the social deficits entry in [4] (setting [8]) is “improved”. Moreover, the social novelty preference result in [4] (prenatally VPA-exposed mice) is “did not have an effect”. For the same molecule, the “inhibition of monoamine oxidase A, concentration range” value (in data set [5]; on rat monoamine oxidase A) was “micromolar concentration range” in each case. Besides, in data set [6] (human and rat enzymes), the “preference between monoamine oxidase A and B” value was “slight preference for monoamine oxidase B”. The “inhibition of monoamine oxidase B, concentration range” value (in data set [6] (human); on rat monoamine oxidase B) was “micromolar concentration range” throughout. In addition, in [7], the plasma exposures entry was “micromolar range”.
